Measurements: ChEMBL document CHEMBL1201862, “PubChem BioAssay data set” (2004)
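Briefly, cells in 96-well plates were exposed to five compound concentrations for 48 h, and endpoints were estimated by linear interpolation. GI50 marks 50% less growth.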 Active and inactive are the calls of the source. Rule as the data show it: active = GI50 up to about 1.1 µM and inactive = higher.

Legend:
Experiment in all cases: growth of human tumour cells (NCI), 48 h
SNB-78 = tested on: SNB-78
DMS-114 = tested on: DMS-114
XF498 = tested on: XF498
MDA-MB-231 = tested on: MDA-MB-231
PC-3 = tested on: PC-3
Hs-578T = tested on: Hs-578T
MDA-MB-435 = tested on: MDA-MB-435
DU-145 = tested on: DU-145

| SMILES | GI50 (SNB-78) | GI50 (DMS-114) | GI50 (XF498) | GI50 (MDA-MB-231) | GI50 (PC-3) | GI50 (Hs-578T) | GI50 (MDA-MB-435) | GI50 (DU-145) |
| --- | --- | --- | --- | --- | --- | --- | --- | --- |
| CC(=O)NC1=C(NC(C)(C)C)C(=O)c2ccccc2C1=O | 31 µM (inactive) | 20.6 µM (inactive) | 11.1 µM (inactive) | – | – | – | – | – |
| O=c1[nH]cnc2[nH]nnc12 | 6.3 µM (inactive) | 8.02 µM (inactive) | 7.5 µM (inactive) | – | – | – | – | – |
| COc1ccc(/C(=N/O)C(c2ccc(OC)cc2)C2C(=O)Oc3ccccc32)cc1 (stereo not drawn) | > 100 µM (inactive) | 26.6 µM (inactive) | – | – | – | – | – | – |
| C1=CC=C2NCCSCC/N=C3/C=CC=CC=C3NCCSCC/N=C\2C=C1 | > 100 µM (inactive) | > 100 µM (inactive) | – | – | – | – | – | – |
| Cn1nc2ccc3nccc(NCCNCCCl)c3c2n1 | – | > 100 µM (inactive) | > 100 µM (inactive) | – | – | – | – | – |
| C=C1C(=O)O[C@H]2C1[C@H](OC(=O)/C(C)=C\COC(C)=O)C[C@]1(CO1)[C@@H]1[C@H](O)[C@H]3O[C@@]3(C)[C@@H]12 (stereo partly drawn) | 25.9 µM (inactive) | 19.4 µM (inactive) | 19.3 µM (inactive) | – | – | – | – | – |
| O=c1cc(-c2ccccc2)oc2cc(OCCCOc3ccc4c(=O)cc(-c5ccccc5)oc4c3)ccc12 | > 100 µM (inactive) | > 100 µM (inactive) | > 100 µM (inactive) | – | – | – | – | – |
| CN(C)CC1(C)CC/C(=C\c2ccc(Cl)cc2)C1=O (stereo not drawn) | 40.8 µM (inactive) | 22.6 µM (inactive) | 78.9 µM (inactive) | – | – | – | – | – |
| CCCC/C(C)=N/NC(N)=S | > 100 µM (inactive) | > 100 µM (inactive) | – | – | – | – | – | – |
| C=C1C(=O)OC2/C=C(\C)CC(O)/C=C(/CO)CC(OC(=O)/C(C)=C/C)C12 (stereo not drawn) | 49.4 µM (inactive) | 14.3 µM (inactive) | 12.2 µM (inactive) | – | – | – | – | – |
| COc1cc(OC)c([C@@H]2OC(=O)C3C2C(=O)O[C@H]3c2cc(OC)c(OC)cc2OC)cc1OC (stereo partly drawn) | > 100 µM (inactive) | 72.4 µM (inactive) | > 100 µM (inactive) | – | – | – | – | – |
| COc1cc2ccc1-c1cc(ccc1O)CC1c3cc4c(cc3CCN1C)Oc1c(OC)cc3c(c1O4)C(C2)N(C)CC3 (stereo not drawn) | 2.1 µM (inactive) | 2 µM (inactive) | 1.92 µM (inactive) | – | – | – | – | – |
| NC1=NS(=O)(=O)Nc2nc(-c3ccc([N+](=O)[O-])o3)[nH]c21 | – | 14.2 µM (inactive) | – | – | – | – | – | – |
| O=C(CN1CCCCC1)Nc1ccc2sc3ccccc3c(=O)c2n1 | – | – | – | 18.5 µM (inactive) | 10.9 µM (inactive) | 18.8 µM (inactive) | 13.1 µM (inactive) | 20.3 µM (inactive) |
| Nc1n[n+](-c2ccccc2)no1 | > 100 µM (inactive) | 18.3 µM (inactive) | – | – | – | – | – | – |
| CC[C@@]1(O)C[C@H](OC2CC(N(C)C)C(O)C(C)O2)c2c(O)c3c(c(O)c2[C@H]1OC1CC(N(C)C)C(O)C(C)O1)C(=O)c1cccc(O)c1C3=O (stereo partly drawn) | – | – | – | 0.0341 µM (active) | 0.0361 µM (active) | 0.0577 µM (active) | 0.0341 µM (active) | 0.182 µM (active) |
| CCOC(=O)[C@@]12CCC(C1=O)[C@](C)(O)C[C@@H]2c1ccccc1 | – | – | – | 36.5 µM (inactive) | 34 µM (inactive) | 22.6 µM (inactive) | 8.07 µM (inactive) | 85.9 µM (inactive) |
| COc1ccc(CCCNC(=O)Cc2ccccc2CO)cc1OC | – | – | – | > 100 µM (inactive) | > 100 µM (inactive) | > 100 µM (inactive) | > 100 µM (inactive) | > 100 µM (inactive) |
| Cc1cccc(CC(Cc2c(C)cccc2C(=O)O)C(=O)O)c1 (stereo not drawn) | – | – | – | > 100 µM (inactive) | > 100 µM (inactive) | > 100 µM (inactive) | > 100 µM (inactive) | > 100 µM (inactive) |
| Nc1ccc(S(=O)(=O)Nc2nc3ccccc3nc2N2CCCCCC2)cc1 | – | – | – | 26.9 µM (inactive) | 29.8 µM (inactive) | 37.2 µM (inactive) | 18.1 µM (inactive) | 30.9 µM (inactive) |
| CN(Cc1cnc2c(N)nc(N)nc2n1)c1ccc(Cl)cc1 | – | – | – | > 100 µM (inactive) | 65.5 µM (inactive) | 33.9 µM (inactive) | > 100 µM (inactive) | > 100 µM (inactive) |
| N#CC(c1nc2ccccc2nc1Cl)S(=O)(=O)c1ccccc1 (stereo not drawn) | 25.8 µM (inactive) | > 100 µM (inactive) | 37.6 µM (inactive) | – | – | – | – | – |
| C1=Cc2cccc3occ(c23)C=C1 | – | – | – | > 100 µM (inactive) | 66.4 µM (inactive) | 22.1 µM (inactive) | 82 µM (inactive) | > 100 µM (inactive) |
